“Also recorded” adds a separate entry of the source.
What was measured:
[1] = tested on: LacZa of E. coli MG1655; test: FnCas12a targeting assay with Tagged-T4 td intron variants (CFU drop plating); assay type: cell-based; details: T crRNA, both induced and non-induced selective media
Description: Four different intron variants (as shown previously in FIG. 8), referred to as “Tag1”, “Tag2”, etc. (Tag1: −4P, −5P, −6P; Tag2: −4W, […] −4W, −5W, −6P; Tag4: −4M, −5P, −6P) are inserted directly after the start codon of the GOI (FnCas12a gene). The 5′ exon sequences of the four different tags are indicated: Tag1: TCCtcaGGT (SEQ ID NO: 7); Tag2: TCCtcgGGT (SEQ ID NO: 8); Tag3: TCCttgGGT (SEQ ID NO: 9); Tag4: TCCtctGGT (SEQ ID NO: 10). The 3′ exon sequence is conserved amongst the 4 different tags and indicated as CTA (SEQ ID NO: 12). The amino acids corresponding to the Tag sequences are indicated with capital bold letters above the Tagged-introns. Intron-less (wild-type) FnCas12a was used as a reference for comparison. Efficiency of targeting of the different Tagged-T4 td intron variants was assessed by using either a LacZa targeting (T) or a non-targeting (NT) crRNA and by comparing the amount of colony forming units (CFUs) of transformed E. coli MG1655 per μg of plasmid used (CFUs μg^−1). CFU was determined by the number of colonies observed.
Electrocompetent E. coli MG1655 were transformed (2.5 kV, 200 Ω, 25 μF) with 10 ng μL^−1 of the respective plasmid and recovered for 1 hour in 500 μL LB medium [10 g L^−1 tryptone (Oxoid), 5 g L^−1 yeast extract (BD), 10 g L^−1 NaCl (Acros)] at 37° C. Then, the recovered culture was serially diluted and drop plated on selective (50 μg mL^−1 kanamycin) LB agar plates in the presence or absence of 2 mM theophylline. The agar plates were incubated at 30° C. for 24 hours and the CFUs were counted.
E. coli MG1655 was transformed with a series of plasmids (listed in Table 4) and serially diluted and drop plated on selective (kanamycin) LB media with or without 2 mM theophylline. […] The effect of the CFU reduction was more apparent for the Tag4-intron where colonies could only be observed at the 10° dilution, followed by Tag3-intron (10^−1) then Tag2-intron (10^−2) and finally Tag1-intron ([…]).

[2] = tested on: EndA of P. putida; test: FnCas12a targeting assay with Tagged-T4 td intron variants in P. putida; assay type: cell-based, Pseudomonas putida; details: media with or without theophylline
Procedure: Plasmids bearing the four T4 td intron-FnCas12a or the intron-less FnCas12a and an EndA T or an NT crRNA were transformed to P. putida and the targeting efficiency was assessed by comparing the CFUs μg^−1 in the presence or absence of the theophylline inducer.
In more detail, electrocompetent P. putida cells were transformed (2.5 kV, 200 Ω, 25 μF) with 200 ng plasmid and recovered in 1 ml LB for 2 hours at 30° C. Then, the culture was serially diluted and drop plated on selective (50 μg mL^−1 kanamycin) LB agar plates in the presence or absence of 2 mM theophylline. The agar plates were incubated at 30° C. for 24 hours and the CFUs were counted.
P. putida was transformed with a series of plasmids (listed in Table 6) and serially diluted and drop plated on selective (kanamycin) LB media with or without 2 mM theophylline. […] However, for P. putida, the effect of induction was more apparent than E. coli as no CFUs could be observed for transformants bearing the T crRNA and plated on selective media with theophylline. […] Collectively, the Tagged-intron constructs work efficiently in P. putida and can be used for genome engineering.

[3] = tested on: LacZ gene of E. coli MG1655; test: SIBR-Cas genome editing (HR and CRISPR-Cas counterselection) of LacZ; assay type: cell-based
Description: For efficient genome editing in bacteria, HR should precede CRISPR-Cas counterselection. To assess whether tight control over CRISPR-Cas targeting could bolster the efficiency of CRISPR-Cas mediated genome editing by allowing more time for HR to occur, we used SIBR-Cas and targeted the LacZ gene of E. coli MG1655 for knock-out through HR and CRISPR-Cas counterselection using a blue/white screening colony assay. To facilitate HR, we added 500 bp up- and down-stream homology arms to the plasmids expressing the four SIBR-Cas (Int1-4) and WT-FnCas12a variants that target the LacZ gene. After 1 hour recovery, we induced the expression of the SIBR-Cas variants to counterselect the WT from the mutant colonies.
Since disruption of LacZ can also be achieved through non-HR mediated approaches (spontaneous mutations or occasional error-prone DNA repair following DNA cleavage by Cas12a), not all gene deletions can be screened phenotypically. Therefore, we repeated our experiment, but X-gal was omitted from the medium to eliminate the possibility of false-positives. Randomly selected colonies that were obtained were screened by PCR for LacZ deletion showing a 0%, 0%, 29% and 38% editing efficiency for Int1, Int2, Int3 and Int4 SIBR-Cas variants, respectively (FIG. 24C). […] The observed decrease in editing efficiency (compared to the blue/white screening) might be attributed to spontaneous LacZ mutations that escape CRISPR-Cas counterselection. Nevertheless, a high editing efficiency (38%) was observed when SIBR-Cas Int4 was used without the use of recombinases or any other complex systems.

With “WT-FnCas12a: Intron-less (wild-type) FnCas12a used as a reference for comparison [reference compound]” the CFUs [1] was “complete elimination of CFUs”, the CFUs [2] was “did not have any CFUs” and the colonies obtained ([3]; LacZ targeting) was “no colonies; also recorded: did not yield any colonies”. The “unbiased editing efficiency (LacZ deletion by PCR of randomly selected colonies)” value ([3]; X-gal omitted from the medium) was 0% and the “editing efficiency: percentage of white colonies from total CFUs mL-1” value ([3]; blue/white screening, LacZ targeting, induced after 1 hour recovery) was 0%.

Source: patent US20240026383A1 (priority 2020, published 2024)
